Experimental findings from patent US6548540B2, “Method of treating cancer using dithiocarbamate derivatives” (Charlotte-Mecklenburg Hospital Authority, priority 1998, dated 2003) are described below.

Each structure is given as a SMILES string.

In assay [1] the target is T1, transcription factor binding to CRE (ATF2 containing complex II) (Homo sapiens, UniProt P15336).
T1 construct: endogenous in cells; host or cells: M1619 human melanoma cells, crude nuclear protein extract
T1 sequence (P15336 1-505): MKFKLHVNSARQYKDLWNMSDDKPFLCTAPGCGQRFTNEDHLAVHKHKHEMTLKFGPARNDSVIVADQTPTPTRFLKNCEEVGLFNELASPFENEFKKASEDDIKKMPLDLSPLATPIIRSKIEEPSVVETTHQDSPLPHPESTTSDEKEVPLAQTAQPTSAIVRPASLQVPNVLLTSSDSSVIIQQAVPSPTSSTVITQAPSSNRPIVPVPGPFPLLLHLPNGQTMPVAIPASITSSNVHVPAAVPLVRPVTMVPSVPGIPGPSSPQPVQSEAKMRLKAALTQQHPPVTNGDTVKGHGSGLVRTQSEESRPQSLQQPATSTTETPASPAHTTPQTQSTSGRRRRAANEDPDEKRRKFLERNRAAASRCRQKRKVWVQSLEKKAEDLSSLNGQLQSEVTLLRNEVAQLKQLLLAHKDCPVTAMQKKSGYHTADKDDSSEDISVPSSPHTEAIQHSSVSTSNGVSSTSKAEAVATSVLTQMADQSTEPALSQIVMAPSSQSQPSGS
As to the kind of experiment: EMSA, agents added directly to binding reaction. The settings on record: for transcription factor binding to CRE: DTT 2.5 mM; for transcription factor binding to CRE, effect with GSH instead of DTT: GSH 3.0 mM as reducing agent. As to the method:
This dose was chosen to approximate the steady state plasma and tissue concentrations of drug in human subjects on chronic therapy with this agent. Disulfiram was solubilized in dimethylsulfoxide (DMSO) so that the final concentration of DMSO was less than 0.3-0.5%. Equal volumes of DMSO were added to control experiments. Nuclear protein was harvested and electrophoretic mobility gel shift assays were performed using DNA consensus binding sequence for the cyclic-AMP responsive element (CRE) as outlined below. […] EMSAs were performed using consensus oligonucleotides ([NT] and 3'-[NT]5') for the cyclic-AMP responsive element CRE (ProMega, Madison, Wis.), end-labeled by phosphorylation with [γ^32P]-ATP and T4 polynucleotide kinase. DNA-protein binding reactions were performed with 2 μg of nuclear protein (as determined by the Pierce method) and 30-80,000 cpm of ^32P-end-labelled double-stranded DNA probe in 10 mM Tris-HCl, pH 7.5, 50 mM NaCl, 0.5 mM EDTA, 0.5 mM DTT (except where indicated), 1 mM MgCl2, 50 μg/ml poly dI-dC, and 4% glycerol. All components of the binding reaction with the exception of labeled probe were combined and incubated at room temperature for 10 minutes before addition of labeled probe and incubation for an additional 20 minutes. To determine if inhibition of transcription factor binding to CRE could be attributed to direct transcription factor modification by disulfiram and copper, we studied the effect of adding each agent directly to the binding reaction performed with nuclear protein from untreated […] cells. Therein electrophoretic mobility shift assays (EMSAs) were performed showing that addition of disulfiram plus copper to the binding reaction reduces DNA binding to CRE. […] In lanes 1-5, DTT (2.5 mM) was added to the binding reaction as a reducing agent, whereas in lane 6-9, GSH (3.0 mM) was used.
A general note: Mobility shift assays separate free from complexed probe on a gel.

The test system of the next assay is p21WAF1/CIP1. As to the kind of experiment: Immunoblot for p21WAF1/CIP1. In kind it is cell-based, human. The settings on record: cell lines studied; data not shown. As to the method: Cells were lysed and proteins were isolated and quantitated by immunoassay as previously detailed using 2 μg/ml of primary rabbit polyclonal antibodies against human bcl-2, p53, p21^WAF1/CiP1, cyclin A and cyclin B1, and peroxidase-labeled donkey polyclonal anti-rabbit IgG. Cells were placed on ice, washed twice with cold DPBS, scraped into 0.5 ml boiling buffer (10% [vol/vol] glycerol and 2% [wt/vol] sodium dodecyl sulfate [SDS] in 83 mM Tris, pH 6.8) and sheared by four passages through a pipette. Aliquots were removed for protein determination, using the BCA protein assay (Pierce). After 10% β-mercaptoethanol and 0.05% bromophenol blue were added, lysates were boiled for 5 min and stored at −80° C. until immunoblotting was performed. Proteins in defrosted samples were separated by SDS-polyacrylamide gel electrophoresis on 12% polyacrylamide gels (15 μg protein/lane) and electrotransferred to 0.45 μm Hybond ECL nitrocellulose membranes (Amersham Life Sciences) using the wet transblot method in transfer buffer (0.025 M Tris, 0.192 M glycine, 2.6 mM SDS, and 20%[vol/vol] methanol; pH 8.8) at 100 volts for 1 hour. […] Immunoblots were rinsed again as above and detected via an enhanced chemiluminescence method (ECL Western blotting detection system, Amersham Life Science, Buckinghamshire, England). […]
For orientation: Immunoblotting shows a protein as a band on a membrane.

The subject of assay [2] is H82 small cell lung cancer cells. As to the kind of experiment: Trypan blue cytotoxicity, H82. It is filed as cell-based, human. The settings on record: 0.625 μM disulfiram; 36 hours. As to the method:
To assess for cytotoxicity, cells were plated at a density of 50,000 per well on 24 well plates and grown for 24 hours. Disulfiram was then added. After an additional 36 hours, medium was removed and replaced with DPBS containing 0.1% trypan blue. Cell death was assessed by counting the average number of trypan blue positive cells per 10×field in 5 random fields for 4 separate wells.

In the case of `CCN(CC)C(=S)SSC(=S)N(CC)CC` [Disulfiram, tetraethylthiuram disulfide], the “transcription factor binding to CRE” value in assay [1] (disulfiram 5 μM alone added to binding reaction) is reported as “reduced”; in assay [1] (disulfiram 5 μM and 1.6 μM CuSO4 added to binding reaction), “reduced”. Also, the “transcription factor binding to CRE, effect with GSH instead of DTT” value in assay [1] (disulfiram 5 μM alone) is reported as “more pronounced”; in assay [1] (disulfiram 5 μM and 1.6 μM CuSO4), “more pronounced”. For the same compound, the “expression of p21WAF1/CIP1” value in the assay on p21WAF1/CIP1 is listed as “no consistent effect”. Further, the “trypan blue positive cells” value in assay [2] is given as 93±12 trypan blue positive cells per well.
